Data published in patent publication US20080081078A1, “Prevention of Cell Proliferation by Inhibiting Myosin Light Chain Kinase” (The Board of Trustees of the University of Illinois, priority 2006, published 2008).

How the values were obtained:
MLC20 phosphorylation = MLC20 phosphorylation by urea gel/Western blotting in smooth muscle cells (SMC); format: cell-based, pig; settings: 24 hrs, 10 μM Dex, 10 μM ActD, 100 μM Chx, 2 μM Cam, 100 μM Eto
Experimental: NIH 3T3 fibroblasts were obtained from ATCC and were grown in Dulbecco's Modified Eagle Medium (DMEM) (Gibco BRL, Gaithersburg, Md.) supplemented with 10% FBS and 1% penicillin and streptomycin in a 37° C. incubator. 3T3 cells were treated with 500 nM actinomycin D in DMEM containing 0.5% FBS without antibiotics for the 0, 2, 4, 8, 16, or 24 hours. Cells were then washed with phosphate buffered saline (PBS). Floating cells were collected by centrifugation and combined with attached cells that were harvested by trypsinization. MLC20 phosphorylation was quantified be Western blotting with an anti-MLC20 antibody (FIG. 1). In short, the harvested cells were treated with ice cold 10% TCA, 10 mM DTT to precipitate the cellular proteins. The pellets were washed with acetone, dissolved in 9 M urea, 10 mM DTT, 20 mM Tris, pH 7.5 and separated using glycerol-urea polyacrylamide gel electrophoresis (PAGE). The proteins were transferred to nitrocellulose, the un-, mono-, and di-phosphorylated forms of MLC20 were identified using an affinity purified antibody to MLC20 and horseradish peroxidase-linked secondary antibody (Jackson ImmunoResearch, West Grove, Pa.). Protein bands were visualized with ECL reagent and the stoichiometry of phosphorylation (mol PO4/mol MLC20) was calculated as described (Obara et al., 1989, “Okadaic acid, a phosphatase inhibitor, produces a Ca2+ and calmodulin-independent contraction of lamb tracheal smooth muscle,” Pfluger's Archiv. 414: 134-138).
The stoichiometry of MLC20 phosphorylation (FIG. 1B, inset) was quantified using the urea gel/Western blotting method described above in untreated (Un) pig pulmonary artery smooth muscle cells (SMC) and SMC treated with 10 μM dexamethasone (Dex), 10 μM actinomycin D (ActD), 100 μM cycloheximide (Chx), 2 μM camptothecin (Cam), and 100 μM etoposide (Eto) for 24 hrs (mean+/−SE, n=3).
Next, in order to determine whether MLC-DP can trigger cell death, SMC were treated with ML-7 or KT5926, two inhibitors of MLCK (Nakanishi et al., 1990; Garcia, 1998; and Bain et al., 2003).
SMC cells were either treated with 10 μM cytochalasin D (CytD) or grown on the non-ionic substrate polyHema to prevent attachment.

Mm5MT cells = test system: Mm5MT cells
Experimental: To investigate the anticancer activity of ML-7 in vivo, Mm5MT cells grown in culture were harvested immediately before injection into syngeneic MMTV-C3H/HeN mice. Cells were washed to remove serum and 10^6 cells were resuspended in 100 μl of serum-free DMEM. Healthy, MMTV-free female mice (14-20 weeks old) were anesthetized with ether and 10^6 cells were injected subcutaneously into the right flank. The mice were randomly divided into four groups of five mice each, and treated with vehicle, ML-7, etoposide or ML-7 plus etoposide. […] To deliver ML-7, a small horizontal incision was made in the interscapular area and a 200 μl osmotic pump (Alzet, Cupertino, Calif.) filled with either 27 mM ML-7 in 50% DMSO or 50% DMSO (vehicle control) was implanted and the wound closed. When given, 25 mg/kg etoposide was injected intraperitoneally on the first 3 days of every week for 4 weeks (days 7-9, 14-16, 21-23 and 28-30). The mice were sacrificed with ether after 4 weeks of drug administration and tumors were removed, weighed and processed for analysis.
Excised tumors were gently patted dry and weighed using a Mettler digital balance. Tumors were sectioned into 2 mm slices, fixed in 10% neutral buffered formalin, routinely processed and embedded in paraffin. […] Photomicrographs documenting the entire section were collected and areas of necrotic and viable tumor were determined using the manual tracing tools within MetaMorph 6.2 (Universal Imaging Corporation, Downingtown, Pa.).

[1] = test system: precancerous mammary alveolar lesions (MAL); assay: Mouse mammary gland organ culture, DMBA-induced mammary alveolar lesions; format: cell-based, Balb/c mice
Experimental: Mammary glands obtained from young Balb/c mice that are exposed to 7,12-dimethylbenz(a)anthracene (DMBA) for 24 h in culture to form precancerous lesions in 24 days. The procedure has been successfully used to determine efficacy of chemopreventive agents and is described in detail elsewhere. (Mehta et al. PPARγ ligand and retinoids prevent preneoplastic mammary lesions. J. Natl Cancer Instit 2000; 92:418-23). Briefly, 70 mammary glands from 35 Balb/c mice were divided into seven groups of 10 glands each and incubated in serum-free medium containing insulin, prolactin (5 μg/ml each), aldosterone and hydrocortisone (1 μg/ml each) for 10 days. DMBA (2 μg/ml) was included in the medium for 24 h on day 3. […] The glands were fixed in formalin and stained with alum carmine and evaluated for MAL. Percent inhibition was calculated by comparing the incidence in the control glands with the treated groups.
Mammary glands obtained from young Balb/c mice were exposed to DMBA as described above and MAL formation was monitored. […] (Mehta et al. PPARγ ligand and retinoids prevent preneoplastic mammary lesions. J. Natl Cancer Instit 2000; 92:418-23) In the present study, we evaluated effects of etoposide and ML-7 at 0.1, 1.0 and 10.0 μM concentrations on the development of MAL in organ culture. […] Percentage inhibition was calculated by comparing the incidence in the control glands with the treated groups. […]

COc1cc([C@@H]2c3cc4c(cc3[C@@H](O[C@@H]3O[C@@H]5CO[C@@H](C)O[C@H]5[C@H](O)[C@H]3O)[C@H]3COC(=O)[C@H]23)OCO4)cc(OC)c1O [etoposide]
MLC20 phosphorylation (MLC20 phosphorylation): dephosphorylated | tumor necrosis (histology) (Mm5MT cells; FIG. 14B): Limited areas of necrosis | tolerability (Mm5MT cells; mouse, in vivo): without visible signs of discomfort | tumor growth (Mm5MT cells; single agents vs vehicle, only the etoposide effect statistically significant): decreased tumor growth | MAL formation ([1]; 0.1 μM): did not affect MAL formation | inhibition of incidence of MAL formation compared to control ([1]; 1 and 10 μM): 40-46%
